According to patent publication US20160000762A1, “IMPROVING COGNITIVE FUNCTION” (THE REGENTS OF THE UNIVERSITY OF CALIFORNIA, priority 2013, published 2016):

Legend:
Format in all cases: in vivo
[1] = system: Ras; assay: GST-Raf1-RBD pulldown of active Ras, brain lysates of wild-type mice; conditions: 30 mg/kg daily for 2 weeks
Protocol: GST-pull-down assay. To measure levels of active Ras, brain lysate homogenized with Ral buffer (25 mM Tris-HCl, pH 7.4, 250 mM NaCl, 0.5% NP40, 1.25 mM MgCl2, and 5% glycerol) from APP transgenic, APP knockout, or wild-type mice was incubated with GST-Raf-RBD purified protein coupled with GLUTATHIONE SEPHAROSE™ (Amersham) overnight at 4° C. After 24 hours, pellets were washed with Ral buffer and western blotting was conducted with anti-Ras.
We next investigated the molecular mechanism by which BTA-EG4 may alter dendritic spine formation. Ras, a small GTPase, is involved in dendritic spine formation and synaptic delivery of AMPA receptors (Zhu et al., 2002; Lee et al., 2011). Moreover, abnormal Ras signaling is associated with neurodegenerative disease, causing cognitive impairments and learning deficits (Stornetta and Zhu, 2011). Thus, we initially investigated the effect of BTA-EG4 on Ras signaling by treating primary hippocampal neurons with BTA-EG4 (5 μM) or control for 24 hrs. […] Further, levels of active Ras were elevated following BTA-EG4 treatment (5 μM) in primary cortical neurons (FIG. 7C) and following BTA-EG4 treatment (30 mg/kg) in wild-type mice (FIG. 7D). We also examined whether BTA-EG4 can alter the activity of downstream Ras signaling proteins, including p-ERK and p-CREB.

[2] = Fear conditioning, wild-type mice; conditions: 30 mg/kg daily for 2 weeks
Protocol: Fear conditioning. Before initiating fear-conditioning tests, wild-type mice were injected daily with BTA-EG4 or vehicle for 2 weeks (n=8/group). Mice were subsequently trained by exposure to a conditioning box (context) for 3 min before administering a tone (18 s) and footshock (2 s), which were repeated twice at 1 min intervals. We performed the contextual test 24 h after training by re-exposing the mice to the conditioning context. A measurement of freezing behavior was recorded every minute for 3 min inside of the conditioning box. The cued test was conducted 3 h following the contextual test. Following a 3 min reexposure to the conditioning box, a tone (18 s) was administered and freezing behavior was measured for 1 min.

[3] = system: CA1 pyramidal neurons; assay: Whole cell recordings (mEPSC, AMPA/NMDA) in CA1 pyramidal neurons of injected mice; conditions: 30 mg/kg i.p., 2 weeks
Protocol: Electrophysiology. Transverse [for Schaffer collateral (SC) input studies] or horizontal [for temporammonic (TA) input studies] hippocampal slices (400-μm thick) were prepared from adult mice. Slices were made using ice-cold dissection buffer (in mM: 212.7 sucrose, 2.6KCl, 1.23NaH2PO4, 10 dextrose, 3MgCl2 and 1CaCl2; 5% CO2/95% O2), and recordings were done in a submersion-type chamber perfused with artificial cerebrospinal fluid (ACSF, in mM: 124NaCl, 5KCl, 1.25NaH2PO4, 26NaHCO3, 10 dextrose, 1.5MgCl2, and 2.5CaCl2; 5% CO2/95% O2, 29.5-30.5° C., 2 ml/min). For field potential recordings, synaptic responses were evoked using 0.2 ms duration pulses delivered through a bipolar glass stimulating electrode at 0.0333 Hz. A train of TBS consisted of a burst of 4 pulses at 100 Hz repeated 10 times at 5 Hz. For 4× TBS, 4 trains of TBS were given at 10 sec inter-train-intervals. […] Recording was initiated 2-3 min after break-in, and each cell was recorded for 10-15 min to collect enough mEPSCs for analysis. […] Cells were held at −70 mV, and the recorded mEPSC data were digitized at 10 kHz with a data acquisition board (National Instruments, Austin, Tex.) and acquired through custom-made programs using the Igor Pro software (WaveMetrics, Lake Oswego, Oreg.). […] Only about 4% of the total recorded cells (at most 1 cell per experimental group) were excluded due to negative correlation between mEPSC rise and amplitude. One hundred consecutive mEPSCs that met the rise time criteria were analyzed from each cell. AMPAR- and NMDAR-mediated currents were measured at −70 and +40 mV, respectively. AMPAR mediated EPSC amplitudes were measured at the peak of the current at −70 mV. NMDAR mediated EPSC amplitudes were measured 100 ms after the stimulation artifact. […]
To verify that the increase in dendritic spine density and synaptic proteins reflects an increase in functional synapses, we measured miniature excitatory postsynaptic currents (mEPSCs) from CA1 neurons in hippocampal slices following in vivo administration of BTA-EG4 (30 mg/kg, i.p.) for 2 weeks.

Substance: BTA-EG4
- levels of active Ras [1]: elevated
- freezing, contextual test [2]: significantly increased
- freezing, cued test [2]: significantly increased
- AMPAR/NMDAR ratio [3]: did not observe a change
- average mEPSC amplitude [3]: no significant difference
- frequency of mEPSCs [3]: significantly increased
